{
  "source": "patent US20080014230A1",
  "about": "“Cosmetic compositions combining a C-glycoside derivative and an N-acylamino amide derivative” (L'OREAL, priority 2006, published 2008)",
  "tested_on": "keratinocyte transglutamase (TGk) activity in normal human epidermal keratinocytes (NHEK) of R3KO15 type",
  "assay": "keratinocyte transglutamase (TGk) activity after prolonged contact of keratinocytes with the test composition",
  "format": "cell-based",
  "details": "for Activity/μg: TGk activity relative to the amount of proteins, calcium-free medium; for %/blank: TGk activity, % of blank (−Ca)",
  "procedure": "The tests performed below use normal human epidermal keratinocytes (NHEK) of R3KO15 type obtained from breast surgery.\nThe activity of a composition in accordance with the invention is tested with regard to these keratinocytes by assaying the keratinocyte transglutamase (TGk) activity after prolonged contact of the keratinocytes with the test composition, the increase in TGk activity sanctioning a stimulation of keratinocyte differentiation.\nThe activity is tested in an SFM medium available from Invitrogen under the reference 17005034.\nIts composition is as follows: • EGF 0.25 ng/ml, • pituitary extract (PE) 25 μg/ml (Invitrogen 3700015), • gentamycin 25 μg/ml (Sigma G1397) • optionally supplemented with 1.5 mM final calcium chloride (Prolabo 22317297).\nKeratinocytes (R3KO15) are precultured in SFM1x medium in 96-well plates (one plate for the test, one for the protein assay and one for the MTT). After incubation for 24 hours at 37° C., the culture medium is removed and replaced with SFM medium, which is not supplemented (calcium-free blank) or supplemented with 1.5 mM final of calcium chloride and not containing (blank) or containing the products, mixed with the test or the references.\nAfter incubation for 48 hours at 37° C. and 5% CO2, the culture medium is removed and the cells are again treated and then incubated for 48 hours at 37° C.\nAll the experimental conditions are performed in hexaplicate.\nThe cell lawns are washed and then sonicated, on ice, in Tris/EDTA pH 8.0 buffer.\nThe membrane TGk enzyme is extracted in the presence of Triton X-100 (incubation with stirring at 4° C.) and the TGk activity is then determined by measuring the covalent addition of tritiated putrescine at 2 μCi/ml final (Amersham TRK 414; 1.04 TBq/mmol, 28 Ci/mmol) to casein (acceptor protein, 2 mg/ml final), in a Tris 0.1 M, CaCl2 4 mM, EDTA 0.4 mM, DTT 5 mM, pH 8.3 buffer, for 2 hours at 37° C.\nThe casein is precipitated by addition of 20% trichloroacetic acid (TCA) containing 1 mM putrescine and the precipitates are recovered on a Skatron filter and collector (extensive washing with 5% TCA, 0.1 mM putrescine and ethanol) and the dry filters are then counted by liquid scintillation.\nThe proteins of each sample are assayed using the Dc Protein Assay kit (BioRad 500-0116) and according to the protocol recommended by the manufacturer.\nThe results obtained are given in Table 1 below, the TGk activity being relative to the amount of proteins—calcium-free medium.",
  "data": [
    {"smiles": "CC(=O)N(c1cccc(C(F)(F)F)c1)C(C(=O)NCC(=O)O)C(C)C", "note": "(centres unmarked) [N-acylamino amide, {2-[acetyl(3-trifluoromethyl-phenyl)amino]-3-methylbutyrylamino}acetic acid]", "values": [
      {"measurement": "Activity/μg", "setting": "0.04 mg/ml", "result": 114},
      {"measurement": "Activity/μg", "setting": "0.2 mg/ml", "result": 104},
      {"measurement": "%/blank", "setting": "0.04 mg/ml", "result": 91, "unit": "%"},
      {"measurement": "%/blank", "setting": "0.2 mg/ml", "result": 82, "unit": "%"},
      {"measurement": "effect on the TGk activity (in words)", "setting": "tested at 0.2 mg/ml and 0.04 mg/ml", "result": "no significant effect"}
    ]},
    {"smiles": "CC1=C(/C=C/C(C)=C/C=C/C(C)=C/C(=O)O)C(C)(C)CCC1", "note": "[Retinoic acid, retinoic acid, reference compound]", "values": [
      {"measurement": "Activity/μg", "setting": "10^−7 M", "result": 111},
      {"measurement": "%/blank", "setting": "10^−7 M", "result": 88, "unit": "%"}
    ]},
    {"smiles": "CC(O)C[C@@H]1OC[C@@H](O)[C@H](O)[C@H]1O", "note": "(stereo partly drawn) [C-glycoside, C-β-D-xylopyranoside-2-hydroxypropane]", "values": [
      {"measurement": "Activity/μg", "setting": "1 mM", "result": 171},
      {"measurement": "Activity/μg", "setting": "3 mM", "result": 210},
      {"measurement": "%/blank", "setting": "1 mM", "result": 136, "unit": "%"},
      {"measurement": "%/blank", "setting": "3 mM", "result": 167, "unit": "%"}
    ]}
  ]
}
